Experiments:
vasculature (flk1) = settings: zebrafish embryos, 36 hpf
Procedure: (§1) Wild-type age-matched embryos were arrayed into 48-well plates (˜5 embryos/well) of individual test compounds and exposed from 3-somites until 36 hpf. Three compound libraries were utilized: NINDS Custom Collection (1040), SpecPlus Collection (960) and BIOMOL ICCB Known Bioactives (480). […] In situ hybridization for runx1 and cmyb was performed to assess HSCs. Compounds were retested at 10 μM, 20 μM, and 50 μM. Stem cell specificity was assessed using flk1 at 36 hpf. PGE2, PGI2, dmPGE2 and all cox inhibitors (Sigma) were used at 10 μM to 20 μM.

runx1/cmyb+ AGM HSCs [1] = settings: 10 μM
Procedure: A chemical genetic screen was conducted to identify novel pathways that modulate definitive HSC formation during zebrafish embryogenesis. FIG. 1. Genes such as runx1 and cmyb, required for HSC development during mammalian hematopoiesis, are expressed in the ventral wall of the dorsal aorta in a region analogous to the mammalian AGM at thirty-six hours post-fertilization (hpf). […] Wild-type embryos were incubated with individual compounds from the three-somite stage until thirty-six hpf. Probes for runx1 and cmyb were combined and utilized to detect HSCs by in situ hybridization.
as §1, with “hpf.” for “hpf. Three compound libraries were utilized: NINDS Custom Collection (1040), SpecPlus Collection (960) and BIOMOL ICCB Known Bioactives (480).”
Qualitative scoring (# embryos with altered HSCs/# scored) of runx1/cmyb was conducted using the following criteria: Normal/unchanged=continuous line of runx1/cmyb+ endothelial cells and occasional hematopoietic clusters. Decreased/absent=reduction in runx1/cmyb+ cells, including the presence of large gaps in the line of HSCs, isolated positive cells, or absence of expression. Increased/excess=enhancement in runx1/cmyb^+ cells, including many HSC clusters, a thickened line of HSCs, or ectopic expression.

repopulating HSCs = assay: Limiting dilution competitive transplantation; assay type: in vivo, mouse
Excerpt: Zhang & Lodish, 103 Blood 2513-21 (2004). WBM (CD45.1) exposed to dmPGE2 ex vivo was mixed independently at varying doses with a fixed number of untreated competitor cells (CD45.1/CD45.2) and injected into congenic recipient mice (CD45.2). Peripheral blood was obtained at six, twelve, and twenty-four weeks post-transplantation and examined by FACS to determine the contribution of treated-test cells to hematopoietic repopulation (FIGS. 9E-9J). Positive reconstitution was defined as test cell multilineage chimerism >5% (FIGS. 9F, H, I). […] At six weeks, the calculated frequency of engrafting cells per 10^6 WBM cells was enhanced 3.3-fold (p=0.005) in the recipients of dmPGE2-treated WBM, and the frequency of short-term repopulating HSCs was 4-fold (p=0.002) higher at twelve weeks post-transplant (FIG. 8E, 8F, FIG. 9G). At twenty-four weeks, the frequency of long-term repopulating HSCs was 2.3-fold enhanced (p=0.05) in recipients of dmPGE2-treated cells (FIG. 8F, FIG. 9J). […] No decline in the contribution of dmPGE2-treated HSCs to hematopoiesis was observed.
WBM from CD45.1 C57Bl/6 mice was incubated with dmPGE2 or EtOH control ex vivo as described. Treated-test cells were independently transplanted into irradiated CD45.2 recipients (n=5/variable×2) with untreated CD45.1/CD45.2 competitor at the following ratios: 15,000:200,000 (0.075:1), 50,000:200,000 (0.25:1), 200,000:200,000 (1:1), 2,000,000:200,000 (10:1). Peripheral blood (PB) was obtained at six, twelve, and twenty-four weeks post-transplantation, and white blood cells were FACS-analyzed to determine test reconstitution for each series of treatment populations. Frequency of PB chimerism >5% was used to calculate the number of repopulating cells using the L-Calc program (Stem Cell Technologies). For twelve-week and twenty-four-week PB samples, multilineage reconstitution was measured by FACS analysis as above.

runx1/cmyb+ AGM HSCs [2] = assay: Morpholino knockdown and dmPGE2 rescue of AGM HSCs; assay type: in vivo, zebrafish
Procedure: PGE2 signals through several receptors, EP1-4, all of which are present in the zebrafish genome. Cha et al., 20 Genet. Devel.
For rescue experiments, 3-somite stage MO-injected embryos were exposed to 10 μM dmPGE2.

WBM cells = assay: Homing of CDFA-labeled WBM to the BM niche; assay type: in vivo, mouse; settings: twelve hours post-transplantation, p=0.83

Compound: CCCCC(C)(C)[C@H](O)/C=C/[C@H]1[C@H](O)CC(=O)[C@@H]1C/C=C\CCCC(=O)O [dmPGE2, 16,16-dimethyl-PGE2]
- effect on vasculature / flk1 staining (in words) (vasculature (flk1)): minimal effects on the vasculature
- embryos with increase in runx1/cmyb+ AGM HSCs (runx1/cmyb+ AGM HSCs [1]): 78%
- increased runx1/cmyb+ HSCs (# embryos altered/# scored) (runx1/cmyb+ AGM HSCs [1]; 36 hpf): 97/124
- Mean % CD45.1 chimerism (±SD) (repopulating HSCs; 6 wk, test cell dose 15000, competitor 200000): 16.9 ± 19.5%
- Animals with >5% CD45.1 (repopulating HSCs; 6 wk, test cell dose 15000, competitor 200000, 10 analyzed): 7
- Mean % CD45.1 chimerism (±SD) (repopulating HSCs; 6 wk, test cell dose 50000, competitor 200000): 22.7 ± 24.2%
- Animals with >5% CD45.1 (repopulating HSCs; 6 wk, test cell dose 50000, competitor 200000, 10 analyzed): 8
- Mean % CD45.1 chimerism (±SD) (repopulating HSCs; 6 wk, test cell dose 200000, competitor 200000): 41.9 ± 17.2%
- Animals with >5% CD45.1 (repopulating HSCs; 6 wk, test cell dose 200000, competitor 200000, 10 analyzed): 10
- Mean % CD45.1 chimerism (±SD) (repopulating HSCs; 6 wk, test cell dose 2000000, competitor 200000): 85.1 ± 3.1%
- Animals with >5% CD45.1 (repopulating HSCs; 6 wk, test cell dose 2000000, competitor 200000, 10 analyzed): 10
- Mean % CD45.1 chimerism (±SD) (repopulating HSCs; 12 wk, test cell dose 15000, competitor 200000): 15.1 ± 22.2%
- Animals with >5% CD45.1 (repopulating HSCs; 12 wk, test cell dose 15000, competitor 200000, 10 analyzed): 5
- Mean % CD45.1 chimerism (±SD) (repopulating HSCs; 12 wk, test cell dose 50000, competitor 200000): 18.1 ± 22.2%
- Animals with >5% CD45.1 (repopulating HSCs; 12 wk, test cell dose 50000, competitor 200000, 10 analyzed): 8
- Mean % CD45.1 chimerism (±SD) (repopulating HSCs; 12 wk, test cell dose 200000, competitor 200000): 40.8 ± 28.7%
- Animals with >5% CD45.1 (repopulating HSCs; 12 wk, test cell dose 200000, competitor 200000, 10 analyzed): 10
- Mean % CD45.1 chimerism (±SD) (repopulating HSCs; 12 wk, test cell dose 2000000, competitor 200000): 87.8 ± 4.0%
- Animals with >5% CD45.1 (repopulating HSCs; 12 wk, test cell dose 2000000, competitor 200000, 10 analyzed): 10
- Mean % CD45.1 chimerism (±SD) (repopulating HSCs; 24 wk, test cell dose 15000, competitor 200000): 10.2 ± 10.3%
- Animals with >5% CD45.1 (repopulating HSCs; 24 wk, test cell dose 15000, competitor 200000, 9 analyzed): 4
- Mean % CD45.1 chimerism (±SD) (repopulating HSCs; 24 wk, test cell dose 50000, competitor 200000): 14.3 ± 16.6%
- Animals with >5% CD45.1 (repopulating HSCs; 24 wk, test cell dose 50000, competitor 200000, 10 analyzed): 7
- Mean % CD45.1 chimerism (±SD) (repopulating HSCs; 24 wk, test cell dose 200000, competitor 200000): 39.1 ± 31.0%
- Animals with >5% CD45.1 (repopulating HSCs; 24 wk, test cell dose 200000, competitor 200000, 10 analyzed): 10
- Mean % CD45.1 chimerism (±SD) (repopulating HSCs; 24 wk, test cell dose 2000000, competitor 200000): 90.7 ± 4.0%
- Animals with >5% CD45.1 (repopulating HSCs; 24 wk, test cell dose 2000000, competitor 200000, 10 analyzed): 10
- calculated frequency of engrafting cells per 10^6 WBM cells, enhancement vs control (repopulating HSCs; six weeks post-transplant, Poisson statistics): 3.3 fold
- frequency of short-term repopulating HSCs, higher vs control (repopulating HSCs; twelve weeks post-transplant, Poisson statistics): 4 fold
- lineage character of reconstitution in recipients (repopulating HSCs; twelve- and twenty-four-week analyses): multilineage
- frequency of long-term repopulating HSCs, enhancement vs control (repopulating HSCs; twenty-four weeks post-transplant, Poisson statistics): 2.3 fold
- contribution of treated HSCs to hematopoiesis over time (repopulating HSCs; up to twenty-four weeks): No decline
- rescue of HSCs in cox1 MO embryos (# rescued/# scored) (runx1/cmyb+ AGM HSCs [2]; 10 μM dmPGE2): 29/52
- rescue of HSCs in cox2 MO embryos (# rescued/# scored) (runx1/cmyb+ AGM HSCs [2]; 10 μM dmPGE2): 43/60
- rescue of HSCs in PGE2 synthase MO embryos (# rescued/# scored) (runx1/cmyb+ AGM HSCs [2]; dmPGE2 addition): 25/45
- reversal of diminished runx1/cmyb expression in EP2 and EP4 MO embryos (runx1/cmyb+ AGM HSCs [2]; exogenous dmPGE2): not reversed
- homing to the BM niche vs control (WBM cells): no significant difference

— patent US10272110B2, “Methods for promoting HSC engraftment” (CHILDREN'S MEDICAL CENTER CORPORATION, priority 2006, dated 2019)
